Experiments:
Experiment in all cases: two-electrode voltage clamp, Xenopus oocytes, inward current
Format in all cases: cell-based
HarmGR13 [1] = target: T1, HarmGR13 (Helicoverpa armigera, UniProt Z9NT97MFL8, D159A); settings: Ringer's solution pH 7.6, -80 mV; 100 mM inositol
T1 construct: full-length, 436 aa; cDNA from larval maxillary galea; pCS2+ cRNA injected into Xenopus laevis oocytes; expressed alone
T1 sequence (Z9NT97MFL8 1-436 D159A): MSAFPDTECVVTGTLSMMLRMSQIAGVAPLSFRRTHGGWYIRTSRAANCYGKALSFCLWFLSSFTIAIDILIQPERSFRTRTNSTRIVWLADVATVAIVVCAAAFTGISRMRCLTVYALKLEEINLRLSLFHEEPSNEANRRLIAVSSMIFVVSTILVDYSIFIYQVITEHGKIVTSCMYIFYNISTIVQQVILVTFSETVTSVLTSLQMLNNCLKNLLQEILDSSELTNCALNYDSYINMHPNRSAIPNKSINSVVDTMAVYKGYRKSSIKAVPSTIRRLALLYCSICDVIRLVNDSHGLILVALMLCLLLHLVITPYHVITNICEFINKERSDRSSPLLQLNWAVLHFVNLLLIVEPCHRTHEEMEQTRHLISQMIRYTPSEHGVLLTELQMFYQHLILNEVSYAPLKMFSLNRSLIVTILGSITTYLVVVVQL

HarmGR13 [2] = target: T2, HarmGR13 (Helicoverpa armigera, UniProt Z9NT97MFL8); settings: Ringer's solution pH 7.6, -80 mV; agonist; dose-response curve in Fig 5B, EC50 not given
T2 construct: full-length, 436 aa; cDNA from larval maxillary galea; pCS2+ cRNA injected into Xenopus laevis oocytes; expressed alone
T2 sequence (Z9NT97MFL8 1-436): T1 sequence (Z9NT97MFL8 1-436 D159A)

HarmGR13 [3] = target: T3, HarmGR13 (Helicoverpa armigera, UniProt Z9NT97MFL8, D92A); settings: Ringer's solution pH 7.6, -80 mV; 100 mM inositol
T3 construct: full-length, 436 aa; cDNA from larval maxillary galea; pCS2+ cRNA injected into Xenopus laevis oocytes; expressed alone
T3 sequence (Z9NT97MFL8 1-436 D92A): T1 sequence (Z9NT97MFL8 1-436 D159A)

HarmGR13 [4] = target: T1, HarmGR13; settings: Ringer's solution pH 7.6, -80 mV; 500 mM ribose
HarmGR13 [5] = target: T3, HarmGR13; settings: Ringer's solution pH 7.6, -80 mV; 500 mM ribose

`O[C@H]1[C@H](O)[C@@H](O)[C@H](O)[C@@H](O)[C@H]1O` [myo-inositol] was tested, and the “inward current at 100 mM” value (HarmGR13 [1]) was “each of three mutated HarmGR13 did not show any inward currents”, the threshold concentration (HarmGR13 [2]) was 1 mM and the “inward current at 100 mM” value (HarmGR13 [3]) was “each of three mutated HarmGR13 did not show any inward currents”.
With `OC1OC[C@@H](O)[C@@H](O)[C@H]1O` (stereo partly drawn) [ribose] the “inward current at 500 mM” value (HarmGR13 [4]) was “each of three mutated HarmGR13 did not show any inward currents”, the threshold concentration (HarmGR13 [2]) was 10 mM and the “inward current at 500 mM” value (HarmGR13 [5]) was “each of three mutated HarmGR13 did not show any inward currents”.

Source: article PMC12165416, “HarmGR13 mediates myo-inositol taste perception in Helicoverpa armigera larvae” (PLOS Genetics, 2025)
